Patent US10617667B2, “Method for treating brain tumors” (ONO PHARMACEUTICAL CO., LTD., priority 2017, dated 2020)

Legend:
[1] = tested on: mouse glioma cell line GL261 orthotopic-graft; experiment: Survival in mouse glioma cell line GL261 orthotopic-graft model; format: in vivo, immunocompetent syngeneic C57BL/6 mice; conditions: Compound A 3 mg/kg oral twice a day
Description: Effects of Combination of Compound A and an Anti-Mouse PD-1 Antibody in Mouse Glioma Cell Line GL261 Orthotopic-Graft Models Using Immunocompetent Syngeneic C57BL/6 Mice
The effect of a combination of Compound A and an anti-mouse PD-1 antibody (4H2, see WO2006/121168) was evaluated in mouse glioma cell line GL261 orthotopic-graft models using immunocompetent syngeneic C57BL/6 mice. GL261 was cultured in a CO2 incubator using an RPMI medium (Mediatech, Inc.) containing 10 vol % of FBS, 100 units/mL of penicillin, and 100 μg/mL of streptomycin. On the day of transplant, GL261 was harvested after removing the culture supernatant, and washing the cells with PBS. The harvested GL261 cells were suspended in PBS to obtain transplant cells. The transplant cells (5×10^4) were then transplanted to the brain of female C57BL/6J mice (The Jackson Laboratory) under anesthesia.
After 5 days from transplant, the mice were divided into 4 groups: a vehicle group, a Compound A single group, an anti-mouse PD-1 antibody single group, and a combination group (Compound A and the anti-mouse PD-1 antibody). Each group included 10 mice. […] The general condition of the mice was observed once a day from the day following the day of transplant of GL261, and scored according to the following table. Thus, the survival rate of the mice was evaluated.

EP4 receptor [2] = molecular target: T1, EP4 receptor (Homo sapiens, UniProt P35408); conditions: as taught by Patent Document 1 (WO2016/111347); cited from earlier work
T1 sequence (P35408 whole entry): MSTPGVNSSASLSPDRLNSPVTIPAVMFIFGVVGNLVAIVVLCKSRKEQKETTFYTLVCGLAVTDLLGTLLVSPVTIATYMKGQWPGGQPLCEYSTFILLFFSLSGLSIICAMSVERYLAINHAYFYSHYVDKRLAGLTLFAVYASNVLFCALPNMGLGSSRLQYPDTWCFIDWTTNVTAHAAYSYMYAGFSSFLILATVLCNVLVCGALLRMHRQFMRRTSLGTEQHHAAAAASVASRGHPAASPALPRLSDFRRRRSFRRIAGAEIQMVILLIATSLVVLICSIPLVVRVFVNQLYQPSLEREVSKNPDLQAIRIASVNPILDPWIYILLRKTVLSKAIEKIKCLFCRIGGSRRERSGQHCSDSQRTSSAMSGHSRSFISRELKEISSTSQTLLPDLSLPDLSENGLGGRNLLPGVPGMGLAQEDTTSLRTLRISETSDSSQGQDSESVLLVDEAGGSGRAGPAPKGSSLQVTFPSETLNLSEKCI

EP4 receptor [3] = molecular target: T1, EP4 receptor; conditions: as taught by Patent Document 1 (WO2016/111347); cited from earlier work; remark: listed apart in the source

CC(C)NC(=O)c1ccc2c(c1)[C@]1(CCO2)C[C@H]1C(=O)Nc1cc(C#N)ccc1CCCC(=O)O [Compound A, 4-[4-cyano-2-({[(2′R,4S)-6-(isopropylcarbamoyl)-2,3-dihydrospiro[chromene-4,1′-cyclopropan]-2′-yl]carbonyl}amino)phenyl]butanoic acid]
survival time compared with vehicle administration group ([1]; GL261 orthotopic graft): longer than that of the vehicle administration group | day after which all the mice had died ([1]; GL261 transplanted to brain of female C57BL/6J mice, days 5-70 from transplant, 10 mice per group): 42 days | binding to EP4 receptor (EP4 receptor [2]): strongly binds | activity at EP4 receptor (EP4 receptor [3]): antagonistic activity
